Source: PubChem BioAssay (NCI)
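Interpolation was linear, between the two tested concentrations surrounding the appropriate level; five concentrations were tested over 48 hours in 96-well plates. GI50 marks 50% less growth. At the TGI there is no net growth.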

How the values were obtained:
Experiment in all cases: growth of human tumour cells (NCI), 48 h
K-562 leukemia = test system: K-562 leukemia
KM12 colon = test system: KM12 colon
HCT-15 colon = test system: HCT-15 colon
NCI-H23 lung = test system: NCI-H23 lung
A549 NSCLC = test system: A549 NSCLC
SNB-75 CNS = test system: SNB-75 CNS
SK-MEL-5 melanoma = test system: SK-MEL-5 melanoma
UACC-257 melanoma = test system: UACC-257 melanoma
OVCAR-5 ovarian = test system: OVCAR-5 ovarian
SK-OV-3 ovarian = test system: SK-OV-3 ovarian
PC-3 prostate = test system: PC-3 prostate
CCRF-CEM leukemia = test system: CCRF-CEM leukemia
MDA-MB-435 = test system: MDA-MB-435
SF-295 CNS = test system: SF-295 CNS
HCT-116 colon = test system: HCT-116 colon
A498 renal = test system: A498 renal
MCF7 breast = test system: MCF7 breast
TK-10 renal = test system: TK-10 renal
UACC-62 melanoma = test system: UACC-62 melanoma
T-47D breast = test system: T-47D breast
MOLT-4 leukemia = test system: MOLT-4 leukemia
COLO 205 colon = test system: COLO 205 colon
HOP-92 NSCLC = test system: HOP-92 NSCLC
HOP-62 NSCLC = test system: HOP-62 NSCLC
MDA-N = test system: MDA-N
OVCAR-3 ovarian = test system: OVCAR-3 ovarian
NCI-H226 lung = test system: NCI-H226 lung
MDA-MB-231 breast = test system: MDA-MB-231 breast
OVCAR-8 ovarian = test system: OVCAR-8 ovarian
SNB-19 CNS = test system: SNB-19 CNS
SF-539 CNS = test system: SF-539 CNS
U251 CNS = test system: U251 CNS
SN12C renal = test system: SN12C renal
786-0 renal = test system: 786-0 renal
LOX IMVI melanoma = test system: LOX IMVI melanoma
EKVX NSCLC = test system: EKVX NSCLC
SF-268 CNS = test system: SF-268 CNS
HT29 colon = test system: HT29 colon
SK-MEL-28 melanoma = test system: SK-MEL-28 melanoma
SW-620 colon = test system: SW-620 colon
M14 melanoma = test system: M14 melanoma
NCI/ADR-RES ovarian = test system: NCI/ADR-RES ovarian
DU-145 prostate = test system: DU-145 prostate
RPMI-8226 leukemia = test system: RPMI-8226 leukemia
HL-60(TB) leukemia = test system: HL-60(TB) leukemia
ACHN renal = test system: ACHN renal
OVCAR-4 ovarian = test system: OVCAR-4 ovarian
HCC-2998 colon = test system: HCC-2998 colon
UO-31 renal = test system: UO-31 renal
NCI-H460 lung = test system: NCI-H460 lung
CAKI-1 renal = test system: CAKI-1 renal
RXF 393 renal = test system: RXF 393 renal
MALME-3M melanoma = test system: MALME-3M melanoma
SK-MEL-2 melanoma = test system: SK-MEL-2 melanoma
BT-549 breast = test system: BT-549 breast
IGROV1 ovarian = test system: IGROV1 ovarian
NCI-H522 lung = test system: NCI-H522 lung
SR leukemia = test system: SR leukemia
HS 578T breast = test system: HS 578T breast

**Q.** Which TGI (K-562 leukemia) does the source give for `Cc1nn(-c2ccccc2)c2nc3c(c(C)nn3-c3ccccc3)c(-c3ccc(C(F)(F)F)cc3)c12` here?
**A.** The TGI was > 100 µM.

**Q.** What about the TGI (KM12 colon) of the same compound?
**A.** The TGI was > 100 µM.

**Q.** And the TGI (HCT-15 colon)?
**A.** Its TGI is > 100 µM.

**Q.** And the TGI (NCI-H23 lung)?
**A.** The TGI was > 100 µM.

**Q.** And the TGI (A549 NSCLC)?
**A.** The TGI was > 100 µM.

**Q.** And the TGI (SNB-75 CNS)?
**A.** Its TGI is 92.6 µM.

**Q.** And the TGI (SK-MEL-5 melanoma)?
**A.** The TGI was > 100 µM.

**Q.** And the TGI (UACC-257 melanoma)?
**A.** Its TGI is > 100 µM.

**Q.** What about the TGI (OVCAR-5 ovarian) of the same compound?
**A.** The TGI was > 100 µM.

**Q.** And the TGI (SK-OV-3 ovarian)?
**A.** Its TGI is > 100 µM.

**Q.** What about the TGI (PC-3 prostate) of the same compound?
**A.** Its TGI is > 100 µM.

**Q.** And the TGI (CCRF-CEM leukemia)?
**A.** Its TGI is > 100 µM.

**Q.** What about the TGI (MDA-MB-435) of the same compound?
**A.** The TGI was > 100 µM.

**Q.** What about the TGI (SF-295 CNS) of the same compound?
**A.** The TGI was > 100 µM.

**Q.** What about the TGI (HCT-116 colon) of the same compound?
**A.** Its TGI is > 100 µM.

**Q.** And the TGI (A498 renal)?
**A.** Its TGI is > 100 µM.

**Q.** What about the TGI (MCF7 breast) of the same compound?
**A.** Its TGI is > 100 µM.

**Q.** And the TGI (TK-10 renal)?
**A.** The TGI was > 100 µM.

**Q.** What about the TGI (UACC-62 melanoma) of the same compound?
**A.** Its TGI is > 100 µM.

**Q.** And the TGI (T-47D breast)?
**A.** The TGI was > 100 µM.

**Q.** And the TGI (MOLT-4 leukemia)?
**A.** Its TGI is > 100 µM.

**Q.** And the TGI (COLO 205 colon)?
**A.** The TGI was > 100 µM.

**Q.** And the TGI (HOP-92 NSCLC)?
**A.** The TGI was > 100 µM.

**Q.** And the TGI (HOP-62 NSCLC)?
**A.** The TGI was > 100 µM.

**Q.** What about the TGI (MDA-N) of the same compound?
**A.** The TGI was > 100 µM.

**Q.** And the TGI (OVCAR-3 ovarian)?
**A.** Its TGI is > 100 µM.

**Q.** What about the TGI (NCI-H226 lung) of the same compound?
**A.** Its TGI is > 100 µM.

**Q.** And the TGI (MDA-MB-231 breast)?
**A.** Its TGI is > 100 µM.

**Q.** What about the TGI (OVCAR-8 ovarian) of the same compound?
**A.** The TGI was > 100 µM.

**Q.** What about the TGI (SNB-19 CNS) of the same compound?
**A.** Its TGI is > 100 µM.

**Q.** What about the TGI (SF-539 CNS) of the same compound?
**A.** Its TGI is > 100 µM.

**Q.** What about the TGI (U251 CNS) of the same compound?
**A.** Its TGI is > 100 µM.

**Q.** And the TGI (SN12C renal)?
**A.** The TGI was > 100 µM.

**Q.** What about the TGI (786-0 renal) of the same compound?
**A.** Its TGI is > 100 µM.

**Q.** And the TGI (LOX IMVI melanoma)?
**A.** The TGI was > 100 µM.

**Q.** What about the TGI (EKVX NSCLC) of the same compound?
**A.** Its TGI is > 100 µM.

**Q.** What about the TGI (SF-268 CNS) of the same compound?
**A.** Its TGI is > 100 µM.

**Q.** What about the TGI (HT29 colon) of the same compound?
**A.** The TGI was > 100 µM.

**Q.** And the TGI (SK-MEL-28 melanoma)?
**A.** The TGI was > 100 µM.

**Q.** And the TGI (SW-620 colon)?
**A.** Its TGI is > 100 µM.

**Q.** And the TGI (M14 melanoma)?
**A.** The TGI was > 100 µM.

**Q.** And the TGI (NCI/ADR-RES ovarian)?
**A.** The TGI was > 100 µM.

**Q.** And the TGI (DU-145 prostate)?
**A.** The TGI was > 100 µM.

**Q.** And the TGI (RPMI-8226 leukemia)?
**A.** Its TGI is > 100 µM.

**Q.** What about the TGI (HL-60(TB) leukemia) of the same compound?
**A.** Its TGI is > 100 µM.

**Q.** And the TGI (ACHN renal)?
**A.** The TGI was > 100 µM.

**Q.** And the TGI (OVCAR-4 ovarian)?
**A.** Its TGI is > 100 µM.

**Q.** And the TGI (HCC-2998 colon)?
**A.** Its TGI is > 100 µM.

**Q.** And the TGI (UO-31 renal)?
**A.** The TGI was > 100 µM.

**Q.** And the TGI (NCI-H460 lung)?
**A.** The TGI was > 100 µM.

**Q.** And the TGI (CAKI-1 renal)?
**A.** Its TGI is > 100 µM.

**Q.** What about the TGI (RXF 393 renal) of the same compound?
**A.** The TGI was > 100 µM.

**Q.** For `N=C1C=C/[N+](=C\C=CCO)C([O-])=N1`, which GI50 (MDA-N) is on record?
**A.** The GI50 was > 1000 µM.

**Q.** And the TGI (MDA-N)?
**A.** Its TGI is > 1000 µM.

**Q.** Which results are given for `Cn1ccnc1Sc1ccc(/C=N\NC(=O)c2cccc(F)c2)cc1[N+](=O)[O-]`?
**A.** TGI (K-562 leukemia): > 100 µM; TGI (KM12 colon): > 100 µM; TGI (HCT-15 colon): > 100 µM; TGI (NCI-H23 lung): > 100 µM; TGI (A549 NSCLC): > 100 µM; TGI (SNB-75 CNS): 59.5 µM; TGI (SK-MEL-5 melanoma): > 100 µM; TGI (UACC-257 melanoma): > 100 µM; TGI (MALME-3M melanoma): > 100 µM; TGI (OVCAR-5 ovarian): > 100 µM; TGI (SK-OV-3 ovarian): 89.8 µM; TGI (PC-3 prostate): 63.2 µM; TGI (CCRF-CEM leukemia): > 100 µM; TGI (MDA-MB-435): > 100 µM; TGI (SF-295 CNS): > 100 µM; TGI (HCT-116 colon): > 100 µM; TGI (SK-MEL-2 melanoma): > 100 µM; TGI (A498 renal): 65.7 µM; TGI (MCF7 breast): 91.5 µM; TGI (TK-10 renal): > 100 µM; TGI (BT-549 breast): > 100 µM; TGI (UACC-62 melanoma): > 100 µM; TGI (T-47D breast): > 100 µM; TGI (MOLT-4 leukemia): > 100 µM; TGI (COLO 205 colon): > 100 µM; TGI (HOP-92 NSCLC): 63.7 µM; TGI (HOP-62 NSCLC): > 100 µM; TGI (OVCAR-3 ovarian): > 100 µM; TGI (IGROV1 ovarian): 53 µM; TGI (NCI-H226 lung): > 100 µM; TGI (MDA-MB-231 breast): > 100 µM; TGI (OVCAR-8 ovarian): 63.5 µM; TGI (SNB-19 CNS): 77.1 µM; TGI (SF-539 CNS): 66.4 µM; TGI (U251 CNS): 43.7 µM; TGI (SN12C renal): > 100 µM; TGI (786-0 renal): > 100 µM; TGI (LOX IMVI melanoma): > 100 µM; TGI (EKVX NSCLC): > 100 µM; TGI (NCI-H522 lung): 72.1 µM; TGI (SF-268 CNS): 53.9 µM; TGI (HT29 colon): > 100 µM; TGI (SK-MEL-28 melanoma): > 100 µM; TGI (SW-620 colon): > 100 µM; TGI (M14 melanoma): > 100 µM; TGI (NCI/ADR-RES ovarian): > 100 µM; TGI (DU-145 prostate): > 100 µM; TGI (RPMI-8226 leukemia): > 100 µM; TGI (HL-60(TB) leukemia): > 100 µM; TGI (ACHN renal): > 100 µM; TGI (OVCAR-4 ovarian): > 100 µM; TGI (HCC-2998 colon): > 100 µM; TGI (UO-31 renal): > 100 µM; TGI (SR leukemia): > 100 µM; TGI (NCI-H460 lung): > 100 µM; TGI (CAKI-1 renal): > 100 µM; TGI (RXF 393 renal): 94.3 µM; TGI (HS 578T breast): 70.6 µM
